Experimental data reported in PubChem BioAssay AID330 (DTP/NCI, 2004).
Inconclusive results and toxic doses are left out. Rule for the calls: active = survival T/C of 150% or more; inactive = T/C below 125% in these data.

Tested on: P388 leukemia ip, CD2F1 mice, survival T/C
Assay: NCI In Vivo Anticancer Drug Screen. Data for tumor model P388 Leukemia (intraperitoneal) in CD2F1 (CDF1) mice
Settings: endpoint: median survival time, higher = longer survival
Protocol: The antitumor activity of compounds was measured in mice bearing transplantable tumors. Survival or tumor size were measured and the results are expressed as the measurement made in the treated group (T) divided by the measurement made in the vehicle treated control group (C). The tumor model used in this assay is P388 Leukemia (intraperitoneal) in CD2F1 (CDF1) mice

[1] = dose: 50.0 mg/kg/injection, schedule: Q01DX005 (ip), vehicle: saline with Tween-80
[2] = dose: 100.0 mg/kg/injection, schedule: Q01DX005 (ip), vehicle: saline with Tween-80
[3] = dose: 50.0 mg/kg/injection, schedule: Q01DX005 (ip), vehicle: Klucel (hydroxypropylcellulose) (HPC)
[4] = dose: 100.0 mg/kg/injection, schedule: Q01DX005 (ip), vehicle: Klucel (hydroxypropylcellulose) (HPC)
[5] = dose: 200.0 mg/kg/injection, schedule: Q01DX005 (ip), vehicle: Klucel (hydroxypropylcellulose) (HPC)
[6] = dose: 60.0 mg/kg/injection, schedule: Q01DX005 (ip), vehicle: saline with Tween-80
[7] = dose: 120.0 mg/kg/injection, schedule: Q01DX005 (ip), vehicle: saline with Tween-80
[8] = dose: 240.0 mg/kg/injection, schedule: Q01DX005 (ip), vehicle: saline with Tween-80
[9] = dose: 100.0 mg/kg/injection, schedule: Q04DX002 (ip), vehicle: saline with Tween-80

Measured: T/C

COc1cccc2c1C(=O)c1c(O)c3c(c(O)c1C2=O)C[C@@](O)(C(C)=O)C[C@@H]3OC1CC(O)C(O)C(C)O1 (stereo partly drawn)
active: dose: 100.0 mg/kg/injection, schedule: Q04DX003 (ip), vehicle: water 161 % of control | dose: 200.0 mg/kg/injection, schedule: Q04DX003 (ip), vehicle: water 192 % of control
inactive: dose: 12.5 mg/kg/injection, schedule: Q04DX003 (ip), vehicle: water 123 % of control

CC(=O)OC1C(=O)C2(C)C(O)CC3OCC3(OC(C)=O)C2C(OC(=O)c2ccccc2)C2(O)CC(OC(=O)C(O)C(NC(=O)c3ccccc3)c3ccccc3)C(C)=C1C2(C)C (stereo not drawn)
active: dose: 20.0 mg/kg/injection, schedule: Q01DX005 (ip), vehicle: DMSO 167 % of control
inactive: dose: 2.5 mg/kg/injection, schedule: Q01DX005 (ip), vehicle: DMSO 106 % of control | dose: 5.0 mg/kg/injection, schedule: Q01DX005 (ip), vehicle: DMSO 121 % of control

O=C1c2ccccc2C(=O)c2c1ccc1ccccc21
inactive: [1] 99 % of control | [2] 89 % of control

O=C(Nc1ccc(C2=NCCCN2)cc1)c1ccc(NC(=O)c2ccc(C3=NCCCN3)cc2)cc1
active: dose: 5.0 mg/kg/injection, schedule: Q01DX009 (ip), vehicle: saline 200 % of control | dose: 10.0 mg/kg/injection, schedule: Q01DX009 (ip), vehicle: saline 250 % of control | dose: 12.5 mg/kg/injection, schedule: Q04DX003 (ip), vehicle: saline 160 % of control | dose: 20.0 mg/kg/injection, schedule: Q04DX003 (ip), vehicle: saline with Tween-80 186 % of control
inactive: dose: 375.0 micrograms/kg/injection, schedule: Q04DX003 (ip), vehicle: saline 109 % of control | dose: 750.0 micrograms/kg/injection, schedule: Q04DX003 (ip), vehicle: saline 100 % of control | dose: 1500.0 micrograms/kg/injection, schedule: Q04DX003 (ip), vehicle: saline 109 % of control

CNc1cccc(NC)c1
inactive: dose: 12.5 mg/kg/injection, schedule: Q01DX009 (ip), vehicle: water 105 % of control | dose: 25.0 mg/kg/injection, schedule: Q01DX009 (ip), vehicle: water 112 % of control

O=C(O)CN(CCN(CC(=O)O)CC(=O)O)CCN(CC(=O)O)CC(=O)O
inactive: [3] 103 % of control | [4] 108 % of control | dose: 100.0 mg/kg/injection, schedule: Q01DX009 (ip), vehicle: Klucel (hydroxypropylcellulose) (HPC) 91 % of control | [5] 103 % of control | dose: 200.0 mg/kg/injection, schedule: Q01DX009 (ip), vehicle: Klucel (hydroxypropylcellulose) (HPC) 94 % of control

Nc1nc(Cc2ccccc2)c(-c2ccccc2)c(-c2nc(N)nc(Cc3ccccc3)c2-c2ccccc2)n1
inactive: [6] 100 % of control | [7] 105 % of control | [8] 99 % of control

C/C(=N\NC(=S)N1CCCCCC1)c1cc2ccccc2cn1
inactive: dose: 3.12 mg/kg/injection, schedule: Q01DX005 (ip), vehicle: distilled water + Tween-80 + alcohol 100 % of control | dose: 6.25 mg/kg/injection, schedule: Q01DX005 (ip), vehicle: Klucel (hydroxypropylcellulose) (HPC) 117 % of control | dose: 6.25 mg/kg/injection, schedule: Q01DX005 (ip), vehicle: distilled water + Tween-80 + alcohol 111 % of control | dose: 12.5 mg/kg/injection, schedule: Q01DX005 (ip), vehicle: Klucel (hydroxypropylcellulose) (HPC) 116 % of control | dose: 12.5 mg/kg/injection, schedule: Q01DX005 (ip), vehicle: distilled water + Tween-80 + alcohol 105 % of control | dose: 25.0 mg/kg/injection, schedule: Q01DX005 (ip), vehicle: Klucel (hydroxypropylcellulose) (HPC) 121 % of control | dose: 25.0 mg/kg/injection, schedule: Q01DX005 (ip), vehicle: distilled water + Tween-80 + alcohol 118 % of control

N#CC(C#N)=C(O)/C(=C/c1ccc(Cl)cc1Cl)NC(=O)c1ccccc1
inactive: [6] 107 % of control | [7] 98 % of control | [8] 100 % of control

O=C1c2ccccc2C(=O)N1CCCC[P+](c1ccccc1)(c1ccccc1)c1ccccc1
inactive: dose: 1.5 mg/kg/injection, schedule: Q01DX009 (ip), vehicle: other 112 % of control | dose: 3.0 mg/kg/injection, schedule: Q01DX009 (ip), vehicle: other 116 % of control | dose: 6.0 mg/kg/injection, schedule: Q01DX009 (ip), vehicle: other 116 % of control | dose: 9.0 mg/kg/injection, schedule: Q01DX009 (ip), vehicle: other 121 % of control

CCc1nc(N)nc(N)c1-c1ccc(Cl)cc1.[O]=[Zn]
inactive: dose: 12.5 mg/kg/injection, schedule: Q04DX003 (ip), vehicle: Klucel (hydroxypropylcellulose) (HPC) 106 % of control | dose: 25.0 mg/kg/injection, schedule: Q04DX003 (ip), vehicle: Klucel (hydroxypropylcellulose) (HPC) 106 % of control | dose: 50.0 mg/kg/injection, schedule: Q04DX003 (ip), vehicle: Klucel (hydroxypropylcellulose) (HPC) 113 % of control | dose: 100.0 mg/kg/injection, schedule: Q04DX003 (ip), vehicle: Klucel (hydroxypropylcellulose) (HPC) 117 % of control

COc1cc(N=Nc2c(Cl)cc([N+](=O)[O-])cc2Cl)c(OC)cc1N=Nc1ccc(N)nc1N
inactive: [1] 99 % of control | [2] 100 % of control | dose: 200.0 mg/kg/injection, schedule: Q01DX005 (ip), vehicle: saline with Tween-80 101 % of control

OCCOc1ccc2ccccc2c1-c1c(OCCOc2ccc3ccccc3c2-c2c(OCCO)ccc3ccccc23)ccc2ccccc12
inactive: dose: 100.0 mg/kg/injection, schedule: Q01DX001 (ip), vehicle: saline with Tween-80 96 % of control | dose: 200.0 mg/kg/injection, schedule: Q01DX001 (ip), vehicle: saline with Tween-80 88 % of control | dose: 400.0 mg/kg/injection, schedule: Q01DX001 (ip), vehicle: saline with Tween-80 92 % of control

O=[N+]([O-])CCCN=NN1CCCCC1
inactive: dose: 12.5 mg/kg/injection, schedule: Q04DX002 (ip), vehicle: saline 104 % of control | dose: 25.0 mg/kg/injection, schedule: Q04DX002 (ip), vehicle: saline 107 % of control | dose: 50.0 mg/kg/injection, schedule: Q04DX002 (ip), vehicle: saline 103 % of control

OCC(O)c1c(-c2ccc(Cl)cc2)c(-c2ccccc2)c2n1CCC2 (stereo not drawn)
inactive: [3] 97 % of control | [4] 100 % of control | [5] 90 % of control

O=c1c2cc3c(cc2c2cccc4c2n1CC4)OCO3
inactive: dose: 25.0 mg/kg/injection, schedule: Q01DX009 (ip), vehicle: other 96 % of control | dose: 50.0 mg/kg/injection, schedule: Q01DX009 (ip), vehicle: other 100 % of control | dose: 100.0 mg/kg/injection, schedule: Q01DX009 (ip), vehicle: other 86 % of control | dose: 200.0 mg/kg/injection, schedule: Q01DX009 (ip), vehicle: other 89 % of control | dose: 400.0 mg/kg/injection, schedule: Q01DX009 (ip), vehicle: other 91 % of control

O=c1nc(-c2ccccc2)nc(-c2ccccc2)[nH]1
inactive: [9] 93 % of control | dose: 200.0 mg/kg/injection, schedule: Q04DX002 (ip), vehicle: saline with Tween-80 89 % of control | dose: 400.0 mg/kg/injection, schedule: Q04DX002 (ip), vehicle: saline with Tween-80 108 % of control

COc1ccc(/C=N\N=C(/[O-])c2ccccc2O)cc1.COc1ccc(/C=N\N=C(/[O-])c2ccccc2O)cc1.[Cu+2].[OH3+].[OH3+]
inactive: dose: 25.0 mg/kg/injection, schedule: Q04DX002 (ip), vehicle: saline with Tween-80 98 % of control | dose: 50.0 mg/kg/injection, schedule: Q04DX002 (ip), vehicle: saline with Tween-80 93 % of control | [9] 93 % of control

COC(=O)COC(=O)CCCCC(=O)OCC(=O)OC
inactive: dose: 50.0 mg/kg/injection, schedule: Q01DX009 (ip), vehicle: saline 111 % of control | dose: 100.0 mg/kg/injection, schedule: Q01DX009 (ip), vehicle: saline 109 % of control | dose: 200.0 mg/kg/injection, schedule: Q01DX009 (ip), vehicle: saline 103 % of control

COc1cc(OC2OC(COC3OC(CO)C(O)C(O)C3O)C(O)C(O)C2O)c2c(c1)C(=O)c1cc(C)cc(O)c1C2=O (stereo not drawn)
inactive: dose: 25.0 mg/kg/injection, schedule: Q01DX005 (ip), vehicle: water 100 % of control | dose: 50.0 mg/kg/injection, schedule: Q01DX005 (ip), vehicle: water 98 % of control | dose: 100.0 mg/kg/injection, schedule: Q01DX005 (ip), vehicle: water 98 % of control | dose: 200.0 mg/kg/injection, schedule: Q01DX005 (ip), vehicle: water 96 % of control
